Data as given in the OligoGym collection.
Oligonucleotides are written 5' to 3', each unit as a sugar letter and its base; * is a phosphorothioate linkage, no mark a phosphodiester; rarer units and linkages stand in square brackets, end groups in braces. Plain capitals give the bases only. d = 2'-deoxy (DNA); r = 2'-OH (RNA)

biological target: P2rx2 (rat); experiment: reporter assay of Huesken 2005; conditions: siRNA
Further: test concentration or dose not given here.

Compared with “sense rCrUrArCrCrCrCrArArGrUrUrCrArArGrUrUrCdTdT / antisense rGrArArCrUrUrGrArArCrUrUrGrGrGrGrUrArGdTdG”, “sense rCrUrCrCrArUrCrGrGrGrGrUrGrGrGrCrUrCrCdTdT / antisense rGrGrArGrCrCrCrArCrCrCrCrGrArUrGrGrArGdGdT” is lower in normalised inhibition (eCFP-eYFP dual reporter): 62.8% for the first, 38.5% for the second.

Compared with “sense rCrUrCrCrUrUrCrCrUrGrUrGrUrGrArCrUrGrGdTdT / antisense rCrCrArGrUrCrArCrArCrArGrGrArArGrGrArGdCdC”, “sense rCrUrCrUrGrArCrUrGrArGrCrArGrGrUrGrGrUdTdT / antisense rArCrCrArCrCrUrGrCrUrCrArGrUrCrArGrArGdCdA” is lower in normalised inhibition (eCFP-eYFP dual reporter): 47.5% for the first, 46.8% for the second.

First: sense rCrUrGrArCrArArCrCrArUrUrUrUrCrUrGrGrGdTdT / antisense rCrCrCrArGrArArArArUrGrGrUrUrGrUrCrArGdAdA
Second: sense rCrUrGrGrArArCrUrGrUrGrArCrCrUrGrGrArCdTdT / antisense rGrUrCrCrArGrGrUrCrArCrArGrUrUrCrCrArGdTdT
The normalised inhibition (eCFP-eYFP dual reporter) of the first is lower: 40.3% for the first, 70.3% for the second.

Going from “sense rCrUrGrGrArCrArUrGrCrArArGrGrCrArArUrGdTdT / antisense rCrArUrUrGrCrCrUrUrGrCrArUrGrUrCrCrArGdCdT” to “sense rCrUrUrGrGrCrCrArGrCrArUrArUrGrGrGrArCdTdT / antisense rGrUrCrCrCrArUrArUrGrCrUrGrGrCrCrArArGdTdG”, the normalised inhibition (eCFP-eYFP dual reporter) falls from 55.2% to 52%.

First: sense rGrArArArUrUrCrArGrUrCrUrCrArUrUrCrCrCdTdT / antisense rGrGrGrArArUrGrArGrArCrUrGrArArUrUrUrCdCdC
Second: sense rGrArCrArGrCrUrGrGrArCrArUrGrCrArArGrGdTdT / antisense rCrCrUrUrGrCrArUrGrUrCrCrArGrCrUrGrUrCdCdG
The normalised inhibition (eCFP-eYFP dual reporter) of the first is higher: 39.7% for the first, 35.3% for the second.

First: sense rGrArCrCrCrUrGrCrCrUrCrCrUrCrArGrGrCrUdTdT / antisense rArGrCrCrUrGrArGrGrArGrGrCrArGrGrGrUrCdAdT
Second: sense rGrArGrGrArArUrArCrGrUrArArArGrCrCrCrCdTdT / antisense rGrGrGrGrCrUrUrUrArCrGrUrArUrUrCrCrUrCdCdA
The normalised inhibition (eCFP-eYFP dual reporter) of the first is higher: 61.9% for the first, 34.9% for the second.

Compared with “sense rGrArUrCrArGrGrArCrUrCrUrGrArCrCrCrArUdTdT / antisense rArUrGrGrGrUrCrArGrArGrUrCrCrUrGrArUrCdAdA”, “sense rGrCrArUrCrArUrCrArCrCrArGrGrArUrCrGrAdTdT / antisense rUrCrGrArUrCrCrUrGrGrUrGrArUrGrArUrGrCdTdG” is lower in normalised inhibition (eCFP-eYFP dual reporter): 81.3% for the first, 78.5% for the second.

Compared with “sense rGrCrCrArCrCrCrArGrCrCrCrUrCrCrArUrCrAdTdT / antisense rUrGrArUrGrGrArGrGrGrCrUrGrGrGrUrGrGrCdTdG”, “sense rGrCrCrArUrArArGrArArGrUrUrCrGrArCrArAdTdT / antisense rUrUrGrUrCrGrArArCrUrUrCrUrUrArUrGrGrCdTdG” is higher in normalised inhibition (eCFP-eYFP dual reporter): 60.8% for the first, 88.6% for the second.

First: sense rGrCrCrCrGrGrUrGrGrArGrGrArUrGrGrArArCdTdT / antisense rGrUrUrCrCrArUrCrCrUrCrCrArCrCrGrGrGrCdAdC
Second: sense rGrCrUrArCrCrArGrGrArCrArGrCrGrArGrArCdTdT / antisense rGrUrCrUrCrGrCrUrGrUrCrCrUrGrGrUrArGrCdTdT
The normalised inhibition (eCFP-eYFP dual reporter) of the first is lower: 48.4% for the first, 60.5% for the second.

Going from “sense rGrCrUrCrUrArCrCrUrGrCrCrArUrUrCrArGrAdTdT / antisense rUrCrUrGrArArUrGrGrCrArGrGrUrArGrArGrCdTdG” to “sense rGrGrArArGrArCrArArArGrUrGrUrGrGrGrArCdTdT / antisense rGrUrCrCrCrArCrArCrUrUrUrGrUrCrUrUrCrCdGdA”, the normalised inhibition (eCFP-eYFP dual reporter) falls from 79.4% to 69.5%.
